From patent publication US20210393549A1, “New use of R-enantiomer of adrenergic beta 2 receptor agonists for treatment of inflammatory bowel disease and its extra intestinal manifestations” (priority 2018, published 2021)
“Also recorded” adds a separate entry of the source.

Assays:
[1] = tested on: DSS induced acute colitis
Text: In one embodiment, IBD was induced in mice by add DSS into drink water for 7 days. […] (Cooper, S. et al., Clinic pathologic study of dextran sulfate sodium experimental murine colitis, Laboratory Investigation, vol. 69, no. 2, p. 238-249, 1993)
The mice were scarified at day 10th for anatomy and histology evaluations. […] Each of the above histological features was scored individually and added together which is then collectively expressed as “histological score”, for quantitative evaluation (Cooper, S. et al., above).
Male C57BL mice (8-10 weeks, 18-20 g) were grouped into control (drinking water only), DSS and DSS plus treatment groups (n=5). Acute colitis was induced by feeding mice with 2% (w/v) dextran sulfate sodium (DSS) (molecular mass 36-50 kDa) added to the drinking water given ad libitum for 7 days. At the end of seventh day, DSS was removed and animals received only drinking water for 2 days. The animals were euthanized for anatomical and histological examination at the tenth day after DSS ingestion.
R-salbutamol (R-S) (1 mg/kg, S-salbutamol (S-S) (1 mg/kg), R-terbutaline (R-T) (1 mg/kg), S-terbutaline (S-T) (1 mg/kg), R-bambuterol (10 mg/kg), S-bambuterol (S-B) (10 mg/kg), R-clenbuterol (R-C) (1 mg/kg), RS-clenbuterol (RS-C) (2 mg/kg) were administered i.g. daily, starting from the 2nd day of DSS induction for consecutive 8 days. Dexamethasone (Dex), 1 mg/kg) was used as a reference drug.
Evaluation of disease symptoms and histological changes Disease activity index (DAI): Animals were monitored daily for weight, water/food consumption, morbidity, stool consistency and fecal blood. […] The colon length was recorded as an indicator of inflammation. The entire colon was cut open longitudinally and gently flushed with sterile phosphate-buffered saline (PBS) to remove any traces of feces for pathology preparation. Colon segments were fixed in 10% neutral buffered formalin. Tissues were embedded in paraffin, sectioned, mounted on slides. H&E-stained paraffin section images were acquired. Pathological evaluation was conducted in a blinded manner.
Histological Score: the scores were given as follows: epithelium, 0=normal morphology, 1=loss of goblet cells, 2=loss of goblet cells in large areas, 3=loss of crypts, and 4=loss of crypts in large areas; and inflammation cells infiltration, 0=no infiltrate, 1=infiltrate around the crypt basis, 2=infiltrate reaching the muscularis mucosae, 3=extensive infiltration reaching the muscularis mucosae and thickening of the mucosa with abundant edema, and 4=infiltration of the submucosa. Data were presented as mean±the standard deviation (SD).

TNBS-induced colitis = TNBS-induced colitis (model for Crohn's disease); type: in vivo, Male mice
Text: Male mice colitis was induced by rectal co-administration of ethanol and TNBS (Trinitrobenzenesulfonic acid). Severe colitis in mice that was characterized by weight loss and diarrhea. Histologically there were loss of normal structures, visible discrete epithelioid granuloma, multiple erosive lesions, massive transmural inflammation infiltration of lymphocytes, and the loss of goblet cells. […] There was significant alleviation of lesions, few inflammatory infiltration with growing crypts and recovery mucosa epithelia along the column. […] In addition, in TNBS treated colitis mice, there were perianal symptoms: erythema, abscesses and ulcers found in some mice, which may lead to perianal fissures or fistulas. […] The therapeutically effects of R-salbuterol, R-clenbuterol and R-bambuterol on the symptoms in TNBS induced Crohn's disease has never been reported in prior art.

[2] = tested on: IMQ-induced Psoriasis-Like Skin lesions; assay: IMQ-induced psoriasis-like skin lesions; type: in vivo, mice
Experimental: Mice were divided into control, psoriasis and psoriasis plus treatment groups, (n=8 in each group). Psoriasis were induced by topical application of imiquimod cream (62.5 mg) on shaved dorsal skin for seven consecutive days. Vaseline was used in control group. There were four treatment groups: three doses of R-salbutamol (R-Sal) (0.5 mg, 1 mg, 2 mg/kg) and Dexamethasone (1 mg/kg) as positive control. All the treatments and same volume of saline (in control group) were administered orally. In some experiment, R-bambuterol (long-last beta2 agonist) was used as an additional treatment group (n=3). Psoriasis Area Severity Index were used for evaluation. Each of the scores for erythema, scaling and skin thickness were measured separately and then group together as a calculative score. (FIG. 2)

[3] = tested on: signal transducer and activator of transcription protein (Stat 2); assay: Stat 2 mRNA expression in psoriasis mice; type: in vivo; conditions: plasma of psoriasis mice, dose-response fashion
Text: There was enhanced expression of mRNA of Janus kinase 2 (JAK2), a non-receptor tyrosine kinase, and the signal transducer and activator of transcription protein (Stat 2) in the plasma of psoriasis mice in comparison of control, Indicating an increase of JAK2 and Stat 2 proteins. These over expression of mRNA was inhibited by R-salbutamol in a dose-response fashion. (FIG. 3 left & right)

[4] = tested on: DNCB induced allergic contact dermatitis; assay: DNCB induced allergic contact dermatitis model (eczema); type: in vivo, mice
Experimental: Mice was shaved at abdominal area DNCB (100 μL 0.5%) is dissolved and applied to the shaved skin to induce Atopica dermatitis for 2 consecutive days. At day 8th, DNCB was applied to both inner and outer surfaces of ears to induce eczema. Treatment of R-salbutamol and indomethacin were given orally at day 1st for consecutive 8 days. The mice were scarified at day 9th for examination and evaluation. Mice were divided into four groups (n=8), namely A, Control; B. Eczema (DNCB); C. Eczema plus R-Salbutamol of 0.05, 0.1 or 0.2 mg/kg; D. Eczema plus indomethacin of 5 mg/kg. The inflammation scores were evaluated according to swelling, erythema, scratch and thickness of both ears. [table]

[5] = tested on: hemorrhoid inflammation symptoms; assay: Hemorrhoid inflammation symptoms, oral or topical; type: in vivo; conditions: given either orally or topically
Text: These perianal pathological changes somewhat similar to hemorrhoid inflammation symptoms. […] This new used of beta2 agonists in treatment of hemorrhoid inflammation symptoms has never been disclosed in prior art.

[6] = tested on: acne, maliaria, hives and eczema; assay: Topical use on acne, maliaria, hives and eczema; type: in vivo
psoriasis and eczema = assay: Oral administration in rats, psoriasis and eczema; type: in vivo
[7] = tested on: DSS induced sub-acute colitis; type: in vivo; conditions: treatments started at day 7th till day 22nd
[8] = acute DSS colitis, compared with untreated DSS mice
[9] = oral 8 days, R-Salbutamol 0.05, 0.1 or 0.2 mg/kg, indomethacin 5 mg/kg

## CC(C)(C)NC[C@H](O)c1ccc(O)c(CO)c1 [R-S, R-salbutamol]
[1]; Example 1, compared with untreated DSS mice
  colon histology (H&E), in words: greatly improved
[1]; acute DSS colitis
  body weight, in words: increased
[1]; [8]
  DAI, in words: significantly improved
  FOB, in words: reduced
  histological score, in words: significantly reduced
  length of colon-rector / shortening of large bowel, in words: shortening of large bowel was reduced
[1]; epithelium 0-4 plus infiltration 0-4, tenth day, 1 mg/kg (R-B, S-B 10 mg/kg; RS-C 2 mg/kg), mean ± SD
  Hist score (histological score): 4 ± 0.5
[1]; grade 0, 2, 4, i.g. daily 8 days, 1 mg/kg (R-B, S-B 10 mg/kg; RS-C 2 mg/kg), mean ± SD
  FOB (fecal occult blood): 0.5 ± 0.5
[1]; i.g. daily 8 days, 1 mg/kg (R-B, S-B 10 mg/kg; RS-C 2 mg/kg), mean ± SD
  Weight: 93 ± 2.8
[1]; score 0 to 12, i.g. daily 8 days from 2nd day of DSS, 1 mg/kg (R-B, S-B 10 mg/kg; RS-C 2 mg/kg), n=5
  DAI (disease active index): 4
[1]; tenth day, i.g. daily 8 days, 1 mg/kg (R-B, S-B 10 mg/kg; RS-C 2 mg/kg), mean ± SD
  Col Length (colon length): 7.7 ± 0.6
TNBS-induced colitis; TNBS treated mice
  perianal manifestations (erythema, abscesses, ulcers): significantly alleviated
  submucosa fibrosis and narrowing of intestinal lumen: not seen; also recorded: significantly reduce the fibrosis and the narrowing of intestinal lumen
TNBS-induced colitis; oral administration
  weight loss, diarrhea, colon length versus normal control mice: No significant different
TNBS-induced colitis; oral administration (R-enantiomers)
  disease condition of TNBS colitis, in words: great ameliorated
[2]; R-salbutamol 2.0 mg/kg oral
  Psoriasis Area Severity score, high dose: best effects for all the scores
[2]; R-salbutamol 0.5, 1, 2 mg/kg oral
  dose dependence of Psoriasis Area Severity score: dose-dependent response
[2]; dorsal skin, IMQ-induced psoriasis mice
  histology of psoriasis skin lesions (HE): mostly recovered
[2]; oral, R-salbutamol 0.5, 1, 2 mg/kg, Dexamethasone 1 mg/kg, compared with psoriasis group
  Psoriasis Area Severity score: significantly reduced
[3]
  over expression of mRNA of Stat 2: inhibited
[4]; R-Salbutamol 0.05 mg/kg
  ear skin histopathology: little effects on eczema
[4]; R-Salbutamol 0.1 mg/kg
  ear skin histopathology: significant reduced monocyte infiltration
[4]; R-salbutamol 0.2 mg/kg
  ear skin histopathology: further reductions in monocyte infiltration and epidermal keratinization
[4]; [9]
  erythema score of both ears: significantly alleviated or prevented
  thickness score of both ears: significantly alleviated or prevented
[4]; oral 8 days, dose-dependent response, indomethacin 5 mg/kg
  eczema histology and inflammatory infiltration: significantly improved
[5]
  hemorrhoid inflammation symptoms: significantly alleviated
[6]
  symptoms of acne, maliaria, hives and eczema: significantly alleviated
Psoriasis and eczema
  psoriasis and eczema: significantly ameliorate
[7]
  therapeutic effects in DSS induced IBD mice: significant therapeutic effects
